Experimental data as given in US20250163104A1, “MACROCYCLIC IMMUNOMODULATORS” (priority 2021, published 2025).
Where a SMILES comes first, the peptide text is derived from it. Bridges are numbered along the chain shown (N, C = ends). [ ]: non-standard residue; d: D form. The star is where a group is joined. Bip = N[C@@H](Cc1ccc(-c2ccccc2)cc1)C(=O)O; Phe(3-Me) = Cc1cccc(C[C@H](N)C(=O)O)c1; Cha = N[C@@H](CC1CCCCC1)C(=O)O; Cit = NC(=O)NCCC[C@H](N)C(=O)O; Carboxymethyl = O=C(O)C*; Nle = CCCC[C@H](N)C(=O)O; Orn = NCCC[C@H](N)C(=O)O; Dab = NCC[C@H](N)C(=O)O; Dap = NC[C@H](N)C(=O)O

The molecules below were run against T1, human PD-1 / PD-L1-Ig binding on Jurkat cell line over-expressing human PD-1 (Jurkat-PD-1) (Homo sapiens, UniProt Q15116) (assay: Jurkat-PD-1 Cell Binding High-Content Screening Assay (CBA)). Conditions: Jurkat-PD-1 cells, PE-labeled PD-L1-Ig 20 nM final; read-out: Jurkat HPD1_PDL1 IC50.
T1 construct: expressed in transfected cells; host or cells: Jurkat
Assay type: cell-based
Outline: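 Read-out: high-content imaging of PE-tagged PD-L1-Ig bound to Jurkat cells overexpressing human PD-1, after fixation with 4% paraformaldehyde and Hoechst 33342 nuclear staining. Ligand was used at 20 nM final for 1 hour, after a 2 h compound exposure at 37° C in serum-containing DMEM.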

T1 sequence (Q15116 25-288): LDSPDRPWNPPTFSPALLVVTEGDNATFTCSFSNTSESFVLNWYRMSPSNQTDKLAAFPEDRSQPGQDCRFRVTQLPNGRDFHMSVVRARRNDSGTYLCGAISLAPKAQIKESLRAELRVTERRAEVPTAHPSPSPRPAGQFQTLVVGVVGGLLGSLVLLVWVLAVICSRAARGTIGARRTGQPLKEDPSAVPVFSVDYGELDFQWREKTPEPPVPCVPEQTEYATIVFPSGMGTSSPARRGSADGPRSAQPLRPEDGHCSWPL

Compound	IC50 [µM]
Cc1cccc(C[C@@H]2NC(=O)[C@H](CC(=O)O)NC(=O)[C@H](Cc3ccc(OCC(=O)O)cc3)NC(=O)[C@H](CN)NC(=O)CSC[C@@H](C(=O)N[C@@H](C)C(=O)N[C@@H](CCC(=O)O)C(N)=O)NC(=O)[C@H]([C@@H](C)O)NC(=O)[C@H](C(C)C)NC(=O)[C@H](CC3CCCCC3)NC(=O)[C@H](CCN)NC(=O)[C@@H](CC(C)C)NC(=O)[C@H](CCCN)NC(=O)[C@H](CCCNC(N)=O)NC(=O)[C@H](Cc3ccc(-c4ccccc4)cc3)NC(=O)[C@H](C(C)C)NC2=O)c1 [Compound 1297] ({CH2CO}-[Dap]Y(Carboxymethyl)D[Phe(3-Me)]V[Bip][Cit][Orn][dL][Dab][Cha]VTCAE-NH2; thioether N-14)	0.0094
Cc1cccc(C[C@@H]2NC(=O)[C@H](CC(=O)O)NC(=O)[C@H](Cc3ccc(OCC(=O)O)cc3)NC(=O)[C@H](CN)NC(=O)CSC[C@@H](C(=O)N[C@@H](C)C(=O)O)NC(=O)[C@H]([C@@H](C)O)NC(=O)[C@H](C(C)C)NC(=O)[C@H](CC3CCCCC3)NC(=O)[C@H](CCN)NC(=O)[C@@H](CC(C)C)NC(=O)[C@H](CCCN)NC(=O)[C@H](CCCNC(N)=O)NC(=O)[C@H](Cc3ccc(-c4ccccc4)cc3)NC(=O)[C@H](C(C)C)NC2=O)c1 [Compound 1300]	0.005
Cc1cccc(C[C@@H]2NC(=O)[C@H](CC(=O)O)NC(=O)[C@H](Cc3ccc(OCC(=O)O)cc3)NC(=O)[C@H](CN)NC(=O)CSC[C@@H](C(=O)N[C@@H](CCC(=O)O)C(=O)O)NC(=O)[C@H]([C@@H](C)O)NC(=O)[C@H](C(C)C)NC(=O)[C@H](CC3CCCCC3)NC(=O)[C@H](CCN)NC(=O)[C@@H](CC(C)C)NC(=O)[C@H](CCCN)NC(=O)[C@H](CCCNC(N)=O)NC(=O)[C@H](Cc3ccc(-c4ccccc4)cc3)NC(=O)[C@H](C(C)C)NC2=O)c1 [Compound 1301] ({CH2CO}-[Dap]Y(Carboxymethyl)D[Phe(3-Me)]V[Bip][Cit][Orn][dL][Dab][Cha]VTCE-OH; thioether N-14)	0.0059
Cc1cccc(C[C@@H]2NC(=O)[C@H](CC(=O)O)NC(=O)[C@H](Cc3ccc(OCC(=O)O)cc3)NC(=O)[C@H](CN)NC(=O)CSC[C@@H](C(=O)N[C@@H](C)C(N)=O)NC(=O)[C@H]([C@@H](C)O)NC(=O)[C@H](C(C)C)NC(=O)[C@H](CC3CCCCC3)NC(=O)[C@H](CCN)NC(=O)[C@@H](CC(C)C)NC(=O)[C@H](CCCN)NC(=O)[C@H](CCC(=O)O)NC(=O)[C@H](Cc3ccc(-c4ccccc4)cc3)NC(=O)[C@H](C(C)C)NC2=O)c1 [Compound 1302]	0.0061
Cc1cccc(C[C@@H]2NC(=O)[C@H](CC(=O)O)NC(=O)[C@H](Cc3ccc(OCC(=O)O)cc3)NC(=O)[C@H](CN)NC(=O)CSC[C@@H](C(=O)N[C@@H](C)C(N)=O)NC(=O)[C@H]([C@@H](C)O)NC(=O)[C@H](C(C)C)NC(=O)[C@H](CC3CCCCC3)NC(=O)[C@H](CCN)NC(=O)[C@@H](CC(C)C)NC(=O)[C@H](CCCN)NC(=O)[C@H](C(C)C)NC(=O)[C@H](Cc3ccc(-c4ccccc4)cc3)NC(=O)[C@H](CC(C)C)NC2=O)c1 [Compound 1303] ({CH2CO}-[Dap]Y(Carboxymethyl)D[Phe(3-Me)]L[Bip]V[Orn][dL][Dab][Cha]VTCA-NH2; thioether N-14)	0.0048
CC(C)C[C@@H]1NC(=O)[C@H](Cc2c[nH]c3ccccc23)NC(=O)[C@H](CC(=O)O)NC(=O)[C@H](Cc2ccc(OCC(=O)O)cc2)NC(=O)[C@H](CN)NC(=O)CSC[C@@H](C(=O)N[C@@H](C)C(N)=O)NC(=O)[C@H]([C@@H](C)O)NC(=O)[C@H](C(C)C)NC(=O)[C@H](CC(C)C)NC(=O)[C@H](CCN)NC(=O)[C@@H](CC(C)C)NC(=O)[C@H](CCCN)NC(=O)[C@H](CCCNC(N)=O)NC(=O)[C@H](Cc2ccc(-c3ccccc3)cc2)NC1=O [Compound 1304] ({CH2CO}-[Dap]Y(Carboxymethyl)DWL[Bip][Cit][Orn][dL][Dab]LVTCA-NH2; thioether N-14)	0.0265
Cc1cccc(C[C@@H]2NC(=O)[C@H](CC(=O)O)NC(=O)[C@H](Cc3ccc(O)cc3)NC(=O)[C@H](CC(N)=O)NC(=O)CSC[C@@H](C(=O)N[C@@H](C)C(N)=O)NC(=O)[C@H]([C@@H](C)O)NC(=O)[C@H](C(C)C)NC(=O)[C@H](CC(C)C)NC(=O)[C@H](CCN)NC(=O)[C@@H](CC(C)C)NC(=O)[C@H](CCCN)NC(=O)[C@H](CCCNC(N)=O)NC(=O)[C@H](Cc3ccc(-c4ccccc4)cc3)NC(=O)[C@H](CC(C)C)NC2=O)c1 [Compound 1305] ({CH2CO}-NYD[Phe(3-Me)]L[Bip][Cit][Orn][dL][Dab]LVTCA-NH2; thioether N-14)	0.0117
Cc1cccc(C[C@@H]2NC(=O)[C@H](CC(=O)O)NC(=O)[C@H](Cc3ccc(O)cc3)NC(=O)[C@H](CC(N)=O)NC(=O)CSC[C@@H](C(=O)N[C@@H](C)C(N)=O)NC(=O)[C@H]([C@@H](C)O)NC(=O)[C@H](C(C)C)NC(=O)[C@H](CC3CCCCC3)NC(=O)[C@H](CCN)NC(=O)[C@@H](CC(C)C)NC(=O)[C@H](CCCN)NC(=O)[C@H](CCCNC(N)=O)NC(=O)[C@H](Cc3ccc(-c4ccccc4)cc3)NC(=O)[C@H](CC(C)C)NC2=O)c1 [Compound 1306] ({CH2CO}-NYD[Phe(3-Me)]L[Bip][Cit][Orn][dL][Dab][Cha]VTCA-NH2; thioether N-14)	0.0146
CCCC[C@@H]1NC(=O)[C@H](CCN)NC(=O)[C@@H](CC(C)C)NC(=O)[C@H](CCCN)NC(=O)[C@H](CCCNC(N)=O)NC(=O)[C@H](Cc2ccc(-c3ccccc3)cc2)NC(=O)[C@H](CC(C)C)NC(=O)[C@H](Cc2cccc(C)c2)NC(=O)[C@H](CC(=O)O)NC(=O)[C@H](Cc2ccc(O)cc2)NC(=O)[C@H](CC(N)=O)NC(=O)CSC[C@@H](C(=O)N[C@@H](C)C(N)=O)NC(=O)[C@H]([C@@H](C)O)NC(=O)[C@H](C(C)C)NC1=O [Compound 1307] ({CH2CO}-NYD[Phe(3-Me)]L[Bip][Cit][Orn][dL][Dab][Nle]VTCA-NH2; thioether N-14)	0.0374
CC(C)C[C@H]1NC(=O)[C@H](CCCN)NC(=O)[C@H](CCCNC(N)=O)NC(=O)[C@H](Cc2ccc(-c3ccccc3)cc2)NC(=O)[C@H](C(C)C)NC(=O)[C@H](Cc2c[nH]c3ccccc23)NC(=O)[C@H](CC(=O)O)NC(=O)[C@H](Cc2ccc(OCC(=O)O)cc2)NC(=O)[C@H](CN)NC(=O)CSC[C@@H](C(=O)N[C@@H](C)C(N)=O)NC(=O)[C@H]([C@@H](C)O)NC(=O)[C@H](C(C)C)NC(=O)[C@H](CC2CCCCC2)NC(=O)[C@H](CCN)NC1=O [Compound 1308] ({CH2CO}-[Dap]Y(Carboxymethyl)DWV[Bip][Cit][Orn][dL][Dab][Cha]VTCA-NH2; thioether N-14)	0.0126
Cc1cccc(C[C@@H]2NC(=O)[C@H](CC(=O)O)NC(=O)[C@H](Cc3ccc(OCC(=O)O)cc3)NC(=O)[C@H](CN)NC(=O)CSC[C@@H](C(=O)N[C@@H](C)C(N)=O)NC(=O)[C@H]([C@@H](C)O)NC(=O)[C@H](C(C)C)NC(=O)[C@H](CC3CCCCC3)NC(=O)[C@H](CCN)NC(=O)[C@@H](CC(C)C)NC(=O)[C@H](CCCN)NC(=O)[C@H](CCN)NC(=O)[C@H](Cc3ccc(-c4ccccc4)cc3)NC(=O)[C@H](C(C)C)NC2=O)c1 [Compound 1309] ({CH2CO}-[Dap]Y(Carboxymethyl)D[Phe(3-Me)]V[Bip][Dab][Orn][dL][Dab][Cha]VTCA-NH2; thioether N-14)	0.0484
